Experimental data as given in article PMC11268423 (Science Advances, 2024).
Values joined by “and” are separate entries in the source; they are usually repeats but may differ in a detail not shown here. Identical values can stand only once.

Experiments:
[1] = test system: SARS-CoV-2 M^pro T304I; settings: cited from earlier work
[2] = test system: SARS-CoV-2 M^pro T304I mutant virus; type: cell-based
[3] = test system: SARS-CoV-2 M^pro T21I; settings: cited from earlier work
[4] = test system: SARS-CoV-2 M^pro L50F; settings: cited from earlier work
[5] = test system: SARS-CoV-2 M^pro T21I+S144A+T304I mutant virus; type: cell-based
[6] = test system: SARS-CoV-2 M^pro E166V; settings: cited from earlier work

CC(C)(C)[C@H](NC(=O)C(F)(F)F)C(=O)N1C[C@H]2[C@@H]([C@H]1C(=O)N[C@H](C#N)C[C@@H]1CCNC1=O)C2(C)C [Nirmatrelvir]
fold resistance to nirmatrelvir [1]: 5.5 fold
Fold over WA-1 [2]: 3.4 fold
fold resistance to nirmatrelvir [3]: 4.6 fold
fold resistance to nirmatrelvir [4]: 4.2 fold
Fold over WA-1 [5]: > 20 fold and 27.8 fold
fold resistance to nirmatrelvir in vitro [6]: up to 288 fold
